The test system of one series is E. coli 205 Kn. Briefly: animal test (mice), ED100. It is filed as in vivo. The conditions noted are these: Escherichia coli, sc, i.p. infection, s.c. treatment, all animals survive, read-out: ED100 after intra-peritoneal infection and subcutaneous treatment. Here is the method:
(§1) | ED100 after intra-peritoneal | infection and subcutaneous The animals were infected with a quantity of bacteria, which quantity led to the death of the control animals during the course of 24 hours. The ED100 was the dose which allowed all infected and treated animals to survive.

For a further series, the system named is E. coli Neumann. Put plainly: animal test (mice), ED100. It is filed as in vivo. The settings on record: Escherichia coli, sc, i.p. infection, s.c. treatment, all animals survive, read-out: ED100 after intra-peritoneal infection and subcutaneous treatment. Here is the method:
as §1

Another series has as its system Klebsiella pneumoniae 63. Put plainly: animal test (mice), ED100. It is filed as in vivo. The conditions noted are these: sc, i.p. infection, s.c. treatment, all animals survive, read-out: ED100 after intra-peritoneal infection and subcutaneous treatment. Here is the method:
as §1

The test system of the next series is Staphylococcus aureus. Briefly: animal test (mice), ED100. The conditions noted are these: sc, i.p. infection, s.c. treatment, all animals survive, read-out: ED100 after intra-peritoneal infection and subcutaneous treatment. It is filed as in vivo. As to the method: as §1
The test system of a further series is E. coli Newmann. Put plainly: ED100 (complete cure) in the white mouse. It is filed as in vivo. The conditions noted are these: Escherichia coli, sc, 0.5 h, once, 30 minutes after infection, subcutaneously. Here is the method:
An ED100 (complete cure) is found in vivo for the white mouse, at 3 mg of antibiotic/kg of body weight, in the case of infection with E. coli […]; therapy: application once, 30 minutes after infection, subcutaneously.

The next series relates to E. coli 14. Put plainly: agar dilution test (NCCLS), in vitro activity. It is filed as cell-based.
In another series the test system is E. coli C 165. Put plainly: agar dilution test (NCCLS), in vitro activity. It is filed as cell-based.
The conditions of series [1]: pH 7.
The next series is described as follows: physchem. The conditions noted are these: organic solvent or mixture.

The structures appear in SMILES notation. *1 amine or outer side, *2 acyl side, *3 side chain or, on linkers, in order; H or OH if unused. Where a SMILES comes first, the peptide text is derived from it. [ ]: non-standard residue; d: D form. ξ: configuration not given here. X1 = Cn1c(=NC(N)=O)ccn(C2SC(C(O)C(N[*:1])C(=O)[*:2])C(O)C2O)c1=O; ξOrn(N(OH)Ac) = CC(=O)N(O)CCCC(N)C(=O)O; ξS = NC(CO)C(=O)O

As to `CC(=O)N(O)CCCC(N)C(=O)NC(CCCN(O)C(C)=O)C(=O)NC(CCCN(O)C(C)=O)C(=O)NC(CO)C(=O)NC(C(=O)O)C(O)C1SC(n2ccc(=NC(N)=O)n(C)c2=O)C(O)C1O` (stereo not drawn) [BAY i 3265 component B] (H-[ξOrn(N(OH)Ac)][ξOrn(N(OH)Ac)][ξOrn(N(OH)Ac)][ξS][X1]-OH), the ED100 in the series with E. coli 205 Kn was 0.1 mg/kg; with E. coli Neumann, 0.5 mg/kg; with Klebsiella pneumoniae 63 it was 0.2 mg/kg; in the series on Staphylococcus aureus it was 0.6 mg/kg; in the series with E. coli Newmann, 3 mg/kg. In addition, the in vitro activity result in the series on E. coli 14 and with E. coli C 165 was “in vitro activity is found” each time. In addition, the solubility in water result in series [1] is listed as “unlimited solubility”. Also, the solubility is below 100 µg/mL in the series “physchem” (chloroform); below 10000 µg/mL in “physchem” (dimethylformamide); below 10000 µg/mL in the series “physchem” (dimethylsulphoxide); below 100 µg/mL in “physchem” (ether); below 100 µg/mL in the series “physchem” (ethyl acetate); below 10000 µg/mL in the series “physchem” (methanol). Also, in the series “physchem” (petroleum ether), the solubility is below 100 µg/mL.
